Patent EP0623599A1 (CIBA-GEIGY AG, priority 1993, dated 1994)
Read-outs that look alike come from different tables or passages of the source.

Legend:
[1] = pKa determination from fluorescence intensity as a function of pH; details: for pKa: 30 vol% methanol / 70 vol% phosphate buffer, pH 6
From the text: (§2) Die Fluorophore werden in einem Gemisch aus 30 Vol.-% Methanol und 70 Vol.-% Phosphatpuffer gelöst und verschiedene pH-Werte zwischen 6 und 13 eingestellt. Die Messlösungen werden in eine Küvette gefüllt und die Fluoreszenzintensität mit einem Spektrophotometer gemessen. Die Fluoreszenzintensität wird als Funktion des pH-Wertes aufgetragen und aus dem Wendepunkt der Kurve der pKa-Wert ermittelt. […] Die Konzentration der Fluorophore beträgt jeweils 10⁻⁷ mol/l.

[2] = Fluorescence change between protonated and deprotonated form of the fluorophore; assay type: physicochemical; details: in Tetrahydrofuran, pH set with 1 M HCl or 1,0 M NaOH, fluorophore 10⁻⁷ mol/l
From the text: Die Ergebnisse sind in Tabelle 2 angegeben.

[3] = Optical potassium determination with sensor membrane (decrease of fluorescence intensity); details: aqueous KCl, 1 ml/min, PVC membrane with Valinomycin
Protocol: a) Als Trägermaterial wird vorbehandeltes Glas verwendet. Runde Glasscheiben (Durchmesser 18 mm, Dicke 0,17 mm) werden eine Stunde in eine Lösung von 10 Vol-% Dimethyl-dodecylchlorsilan in Isopropanol getaucht. Danach wäscht man die Glasscheiben nacheinander mit je 200 ml Isopropanol, Ethanol und Methanol und trocknet 1 h bei 110 °C. Die hydrophobisierte Oberfläche weist eine verbesserte Haftung der Membranschicht auf. b) Herstellung der Beschichtungslösung. Die folgenden Bestandteile werden zusammen mit 1,5 ml Tetrahydrofuran in eine 2 ml Flasche gegeben und bis zur Lösung der Komponenten geschüttelt: • 1. 80 mg Polyvinylchlorid (Fluka, 81392) • 2. 160 mg Bis-(2-ethylhexyl)sebacat (Weichmacher) • 3. 5 mg Valinomycin • 4. 1,5 mg Kalium-tetrakis(4-fluorphenyl)borat • 5. 2 mg Fluorophor
c) Herstellung von beschichteten Glasträgern. Die Glasträger werden in der Kammer eines Schleuderbeschichtungsapparats (Optocoat OS 35var, Willer Company, CH-8484 Weisslingen) befestigt. Die Kammer wird mit 10 ml Tetrahydrofuran gespült und 2 min bei 3800 Umdrehungen/Minute rotiert. Danach werden 50 µl der jeweiligen Beschichtungslösung auf den Glasträger pipettiert und der Glasträger noch 10 sec rotiert. Man entfernt den mit einer Membran beschichteten Glasträger und trocknet ihn 10 min an der Luft. d) Spektrale Eigenschaften der Membranen. Die beschichteten Glasträger werden in einer optischen Zelle befestigt, in der die Membran mit der Messflüssigkeit in Berührung steht. Die Membran kann in der optischen Zelle optisch angeregt und die Fluoreszenzstrahlung gemessen werden. Die optische Zelle wird in ein Spektrofluorometer (Pekin-Elmer LS-50) gebracht und das Absorptions- und Emmissionsspektrum gemessen. Ferner wird die relative Fluoreszenzquantenausbeute gemäss der von Calvert und Pitts in Photochemistry, Verlag: John Wiley and Sons Inc., Seiten 799 bis 805 (1966) beschriebenen Methode mit Fluorescein als Standard bestimmt. Die Ergebnisse sind in Tabelle 1 angegeben. Tabelle 1:
(§1) Es wird die gleiche Versuchsanordnung wie in Beispiel B1d verwendet und die Absorptions- sowie Emmissionswellenlängen auf die entsprechenden Maxima der in der Membran eingesetzten Fluorophore eingestellt. Die Membran wird mit einer wässrigen KCl-Lösung definierter Konzentration in Kontakt gebracht, indem man die Lösung mit einer Geschwindigkeit von 1 ml/min durch die Zelle pumpt und die Änderung der Fluoreszenzintensität bestimmt. Vor der Messung und nach jeder Messung wird mit Kaliumionen-freien Pufferlösungen gespült und die Fluoreszenzintensität bestimmt, um die Basislinie festzulegen. Die Erniedrigung der Fluoreszenzintensität in Prozent bei der jeweiligen Kaliumkonzentration für den Fluorophor gemäss Beispiel A5 (Membran B1) sind in der Tabelle 3 angegeben.

[4] = 30% methanol phosphate buffer, pH 6
From the text: as §2

[5] = Optical calcium determination with sensor membrane (decrease of fluorescence intensity); details: buffer pH 5, Polyurethan (Tecoflex) membrane with Kalzium Ionophor I
Protocol: as §1, with “angegeben. Tabelle 3:” for “angegeben.”
Es wird wie in Beispiel C1 verfahren und die Kalziumionenkonzentration mit einer Membran aus 2 mg Fluorophor gemäss Beispiel A5, 30 mg Kalziumionophor ((-)-(R,R)-N,N-[Bis(11-ethoxycarbonyl)undecyl]-N,N-4,5-tetramethyl-3,6-dioxaoctandia mid, Fluka Kalzium Ionophor I, Katalog Nr. 21192), 6 mg Kalium-tetrakis(4-chlorphenyl)borat, 75 mg Polyurethan (Tecoflex®), 160 mg Bis-2-ethylhexyl-sebacat als Weichmacher und 1 ml Tetrahydrofuran bestimmt. Der Sensor wird einer Pufferlösung bei pH 5 (0,02M NaOH und Essigsäure) unterschiedlichen Kalziumkonzentrationen ausgesetzt. Die Ergebnisse sind in Tabelle 7 angegeben.

[6] = Optical sodium determination with sensor membrane (decrease of fluorescence intensity); details: buffer pH 5, Polyurethan (Tecoflex) membrane with Natrium Ionophor V
Protocol: as §1, with “angegeben. Tabelle 3:” for “angegeben.”
Es wird wie in Beispiel C1 verfahren und die Natriumionenkonzentration mit einer Membran aus 2 mg Fluorophor gemäss Beispiel A5, 30 mg Natriumionophor (4-Octadecanoyloxymethyl-N,N,N,N-tetracyxlohexyl- 1 ,2-phenylendioxy-diacetamid, Fluka Natrium Ionophor V, Katalog Nr. 71738), 2 mg Kalium-tetrakis(4-chlorphenyl)borat, 75 mg Polyurethan (Tecoflex®), 160 mg Bis-2-ethylhexyl-sebacat als Weichmacher und 1 ml Tetrahydrofuran bestimmt. Der Sensor wird einer Pufferlösung bei pH 5 (0,1 Mol Tris-hydroxymethyl-aminomit-methan und 1M HCl) unterschiedlichen Natriumkonzentrationen ausgesetzt. Die Ergebnisse sind in Tabelle 6 angegeben.

Compound | pKa [1] | Änderung Fluoreszenzintensität [2] [Prozent] | % Erniedrigung Fluoreszenzintensität ([3]; Kalium-Konzentration 0,1 mM) [%] | % Erniedrigung Fluoreszenzintensität ([3]; Kalium-Konzentration 0,5 mM) [%] | % Erniedrigung Fluoreszenzintensität ([3]; Kalium-Konzentration 1,0 mM) [%] | % Erniedrigung Fluoreszenzintensität ([3]; Kalium-Konzentration 5,0 mM) [%] | % Erniedrigung Fluoreszenzintensität ([3]; Kalium-Konzentration 10,0 mM) [%] | % Erniedrigung Fluoreszenzintensität ([3]; Kalium-Konzentration 100,0 mM) [%] | also measured
CCCCCCCCCCCCCCCCCCCCNc1ccc2cc3ccc(NCCCCCCCCCCCCCCCCCCCC)cc3nc2c1 [Beispiel A2, 3,6-Bis(n-eicosylamino)-acridin] | 11.1 | 41 |  |  |  |  |  |  | 
CCCCCCCCNc1ccc2cc3ccc(NCCCCCCCC)cc3nc2c1 [Beispiel A1, 3,6-Bis(n-octylamino)-acridin] | 10 | 44 | 5 | 15 | 25 | 39 | 45 | 75 | 
CCCCCCCCN=c1ccc2c(-c3ccccc3C(=O)O)c3ccc(NCCCCCCCC)cc3oc-2c1 [Beispiel A6] |  | 20 | 36 | 41 | 43 | 48 | 52 |  | pKa-Wert [4]: 12,0
CCCCCCCCCCCCCCCCCCCCN=c1ccc2c(-c3ccccc3C(=O)O)c3ccc(N(CC)CC)cc3oc-2c1 [Beispiel A5] | 10.3 | 33 | 20 | 35 | 45 | 53 | 60 | 68 | % Erniedrigung Fluoreszenzintensität ([5]; Kalzium-Konzentration 0,1 mM): 26,5%; % Erniedrigung Fluoreszenzintensität ([5]; Kalzium-Konzentration 0,5 mM): 43,1%; % Erniedrigung Fluoreszenzintensität ([5]; Kalzium-Konzentration 0 mM): 0%; % Erniedrigung Fluoreszenzintensität ([5]; Kalzium-Konzentration 1,0 mM): 50,6%; % Erniedrigung Fluoreszenzintensität ([5]; Kalzium-Konzentration 3,0 mM): 61,0%; % Erniedrigung Fluoreszenzintensität ([5]; Kalzium-Konzentration 5,0 mM): 65,8%; % Erniedrigung Fluoreszenzintensität ([5]; Kalzium-Konzentration 7,0 mM): 68,1%; % Erniedrigung Fluoreszenzintensität ([5]; Kalzium-Konzentration 10,0 mM): 71,0%; % Erniedrigung Fluoreszenzintensität ([3]; Kalium-Konzentration 0,01 mM): 5%; % Erniedrigung Fluoreszenzintensität ([6]; Natrium-Konzentration 0 mM): 0%; % Erniedrigung Fluoreszenzintensität ([6]; Natrium-Konzentration 3 mM): 15%; % Erniedrigung Fluoreszenzintensität ([6]; Natrium-Konzentration 15 mM): 41%; % Erniedrigung Fluoreszenzintensität ([6]; Natrium-Konzentration 30 mM): 54%; % Erniedrigung Fluoreszenzintensität ([6]; Natrium-Konzentration 90 mM): 72%; % Erniedrigung Fluoreszenzintensität ([6]; Natrium-Konzentration 150 mM): 79%; % Erniedrigung Fluoreszenzintensität ([6]; Natrium-Konzentration 210 mM): 83%; % Erniedrigung Fluoreszenzintensität ([6]; Natrium-Konzentration 300 mM): 86%
CCCCCCCCCCCCCCCCCC(=O)N=c1ccc2c(-c3ccccc3C(=O)O)c3ccc(N(CC)CC)cc3oc-2c1 [Beispiel A7] |  | 15 |  |  |  |  |  |  | pKa-Wert ([1]; 30 Vol.-% Methanol / 70 Vol.-% Phosphatpuffer, pH 6 to 13, fluorophore 10⁻⁷ mol/l, inflection point of curve): 10,1
CCCCCCC(=O)Nc1ccc2cc3ccc(NC(=O)CCCCCC)cc3nc2c1 | 10 | 24 |  |  |  |  |  |  | 
